Assay results from article PMC7007416 (Analytical and Bioanalytical Chemistry, 2019).

What was measured:
[1] = tested on: monolayer of Caco-2/HT29-MTX cells; assay: Lucifer yellow cell barrier integrity test; type: in vitro ADME, human; settings: 500 μg/mL apical, 30 min, after permeability experiments (day 21); average
Description: Barrier integrity was evaluated similar to the study of Hubatsch et al., and cells were cultured on a Transwell membrane for 21 days and subsequently stained for tight junction protein ZO-1 and the cell nuclei. For this, the cells were washed with PBS and fixed with 4% paraformaldehyde (w/v) for 15 min. Cells were permeabilized with 0.25% Triton X-100 (v/v) and blocked with 1% BSA (w/v). The cells were then incubated with the conjugated antibody ZO-1/TJP1-Alexa Fluor 594 for 45 min (10 μg/mL). Subsequently, DAPI was used to stain the nuclei for 10 min (5 μg/mL). Between incubations, cells were washed with PBS three times. Cells were mounted in a 120-μm spacer (Sigma-Aldrich) on a microscope slide (Thermo Scientific) with ProLong Diamond Antifade Mountant. Slides were then examined using a Zeiss (Jena, Germany) LSM 510 META confocal microscope. Samples were excited with 405-nm and 543-nm lasers, and the pinholes were in the range of 90–94 μm at a magnification of × 40. Cell layer integrity was also evaluated using the transport marker Lucifer yellow. […] Cell culture medium was collected from the apical and basolateral sides at t = 0 and t = 30 min and analysed for fluorescence at 458 nm/530 nm using a Bio-Tek Synergy HT Multi-Mode microplate reader. […]

[2] = tested on: monolayer of Caco-2/HT29-MTX cells
Description: (§1) The human colonic adenocarcinoma Caco-2 cell line was obtained from the American Type Culture Collection (ATCC, Manassas, VA, USA), and the human colon adenocarcinoma mucus-secreting HT29-MTX-E12 cell line was obtained from the European Collection of Authenticated Cell Cultures (ECACC, Salisbury, UK). Caco-2 cells were used at passage numbers 29–40, and HT29-MTX-E12 cells were used at passage numbers 52–70 for all experiments. Cells were cultured in DMEM containing 10% FBS, 1% NEAA and 1% penicillin-streptomycin and maintained at 37 °C in a 5% CO2-humidified air atmosphere and subcultured every 2 days to 3 days similar to the study of Abdelkhaliq et al.. For permeability experiments, cells were seeded at a density of 40,000 cells/cm^2 on a polycarbonate Transwell insert (area 0.6 cm^2, 0.4 μm pore size; Millipore) as follows: Caco-2 and HT29-MTX-E12 cells were seeded in a 3:1 ratio on the apical side of the Transwell system and allowed to attach for 24 h. After 24 h, cell culture medium was refreshed every 2–3 days and Transwell systems were used for permeability experiments following 21 days of culturing.

[3] = tested on: Caco-2 and HT29-MTX-E12 cells (ratio 3:1)
Description: With the WST-1 assay, mitochondrial activity of the cell is measured by the conversion of WST-1 into formazan dye by mitochondrial dehydrogenase enzymes. The assay is performed as follows: Caco-2 and HT29-MTX-E12 cells (ratio 3:1) were seeded in Greiner Bio-One (Alphen aan den Rijn, The Netherlands) flat-bottom 96-well plates at a concentration of 1 × 10^5 cells/mL in cell culture medium (100 μL/well). Plates were incubated for 24 h at 37 °C under 5% CO2. […] Then, the exposure medium containing (dilutions of) the compounds of interest was discarded and the cells were washed with pre-warmed HBSS. Subsequently, WST-1 reagent (in cell culture medium without phenol red) was added to the cells (1:10, 100 μL/well). After 1.5 h of incubation at 37 °C, the absorbance of each well was measured at 440 nm using a Bio-Tek (Winooski, VT, USA) Synergy HT Multi-Mode microplate reader.

[4] = tested on: monolayer of Caco-2/HT29-MTX cells; assay: Permeability in dynamic flow-through Transwell system, offline analysis; settings: dynamic vs static, ergotamin(in)e 10 μg/mL
Description: as §1
(§2) HEPES is added because the experiments with the flow-through Transwell systems are performed outside of a CO2-controlled incubator, and for the sake of comparability, it is added to the static Transwell systems as well. […]

[5] = tested on: monolayer of Caco-2/HT29-MTX cells; assay: Permeability in static Transwell system; settings: static experiments, ergotamin(in)e 10 μg/mL apical
Description: as §1, §2

[6] = Permeability in static Transwell system; settings: human
Description: as §1, §2

Lucifer yellow
Lucifer yellow permeability (percentage of the apical concentration) [1]: 0.18% ± 0.06

CN1C2CCCC1CC(NC(=O)c1nn(C)c3ccccc13)C2 (centres unmarked) [granisetron, Granisetron]
cell-induced product formation on the basolateral side [2]: no cell-induced products were detected | translocated across the in vitro intestinal barrier, cumulative % of the apical concentration ([2]; human, 3 h): 13.1% | non-toxic concentration ([3]; human, 24 h): 10 µg/mL

Triton X-100
cell viability ([3]; positive control, Triton X-100 0.25% v/v, percentage of negative control): 0.4% ± 0.3

CN1C[C@@H](C(=O)N[C@]2(C)O[C@@]3(O)[C@@H]4CCCN4C(=O)[C@H](Cc4ccccc4)N3C2=O)C=C2c3cccc4[nH]cc(c34)C[C@H]21 [ergotaminine]
permeability, times lower in the dynamic experiments compared to the static experiments [4]: 5 times | apparent permeability coefficient [5]: 50.2 ± 5.8 × 10^−6 cm/s

CN1C[C@H](C(=O)N[C@]2(C)O[C@@]3(O)[C@@H]4CCCN4C(=O)[C@H](Cc4ccccc4)N3C2=O)C=C2c3cccc4[nH]cc(c34)C[C@H]21 [ergotamine]
Papp at 180 min, 10 μg/mL [6]: 8.6 ± 1.2 ×10⁻⁶ cm/s
